{
  "source": "patent US20090029366A1",
  "about": "(priority 2007, published 2009)",
  "target": "T1, HCN3 channel (Homo sapiens, UniProt Q9P1Z3)",
  "T1 construct": "expressed in transfected cells; host or cells: HEK-293H",
  "T1 sequence (Q9P1Z3 1-774)": "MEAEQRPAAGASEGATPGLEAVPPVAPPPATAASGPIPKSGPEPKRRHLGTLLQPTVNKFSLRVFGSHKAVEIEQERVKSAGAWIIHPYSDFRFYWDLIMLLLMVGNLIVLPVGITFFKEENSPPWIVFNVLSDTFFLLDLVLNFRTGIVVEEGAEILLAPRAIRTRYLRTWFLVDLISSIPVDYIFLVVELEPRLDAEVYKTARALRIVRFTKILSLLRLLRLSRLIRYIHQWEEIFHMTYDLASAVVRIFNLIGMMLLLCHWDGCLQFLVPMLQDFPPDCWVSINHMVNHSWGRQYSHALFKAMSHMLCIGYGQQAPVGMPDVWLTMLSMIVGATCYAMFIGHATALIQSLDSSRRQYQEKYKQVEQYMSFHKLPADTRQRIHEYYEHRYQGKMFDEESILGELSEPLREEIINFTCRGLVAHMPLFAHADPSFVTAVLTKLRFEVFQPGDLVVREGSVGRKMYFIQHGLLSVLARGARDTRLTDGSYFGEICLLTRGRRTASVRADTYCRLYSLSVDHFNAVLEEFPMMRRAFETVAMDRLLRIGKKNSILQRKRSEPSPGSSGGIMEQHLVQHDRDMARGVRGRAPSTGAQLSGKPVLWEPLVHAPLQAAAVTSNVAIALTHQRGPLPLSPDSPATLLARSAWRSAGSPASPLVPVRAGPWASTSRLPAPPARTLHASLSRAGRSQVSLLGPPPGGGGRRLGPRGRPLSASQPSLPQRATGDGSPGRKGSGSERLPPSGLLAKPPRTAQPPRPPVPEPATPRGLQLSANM",
  "assay": "MPSD FLIPR/FLEX 96 well hyperpolarization assay, HCN3",
  "type": "cell-based",
  "details": "HCN3 channel expressing HEK-293H cells, ZD7288 30 μM (FIG. 7A)",
  "method": "The above-described assay was modified for use with the FLIPR®^96 or FLEX^96 96 well plate format. In brief, cells stably expressing HCN channels were plated at 40-80×10^3 cells/plate in 100-150 μl/well of DMEM supplemented with 10% fetal bovine serum, 1× NEAA, and 1× penicillin/streptomycin. Cells were cultured for 24-48 hours in a 5% CO2/air humidifiedincubator at 37° C. Cells were incubated in 30 μl/well of HBSS containing MPSD, as described above, for 15-45 minutes at room temperature.\nMembrane potentials were measured at room temperature (21°-23°) using a FLIPR® system or a FLEXSTATION® (Molecular Devices of Sunnydale, Calif.). Control cells were incubated in HBSS/MPSD without a test agent. For identification of HCN channel modulators, cells were incubated in HBSS/MPSD and the presence of a test agent as described in Examples 5 and 6 herein below. […]\nCells were incubated in 30 μl HBSS supplemented with MPSD with or without 50 μM of the channel inhibitor ZD7288, dissolved in <1.0% dimethyl sulfoxide (DMSO) added to the HBSS solution. […] The change in fluorescence (ΔF) was measured for a total assay time of about 100 seconds. […]\nFIG. 6A depicts the whole-plate screenshot of the changes in fluorescence/membrane potential over time. FIG. 7A depicts the change in fluorescence (F) over time for control cells (upper trace) and for cells exposed to ZD7288 at a concentration of 30 μM (lower trace). […]",
  "data": [
    {"smiles": "CCN(c1ccccc1)c1cc(=NC)n(C)c(C)n1.Cl", "note": "[ZD7288]", "values": [
      {"measurement": "blockade of hyperpolarization (change in fluorescence)", "result": "effectively blocked hyperpolarization"}
    ]}
  ]
}
